Laboratory results from US20210290680A1, “METHODS AND COMPOSITIONS FOR MODULATING CELLULAR AGING” (Dorian Therapeutics, Inc., priority 2019, published 2021).

Experiments:
Type in all cases: cell-based, human
primary T cells = experiment: T cell expansion / proliferation by Trypan Blue cell counts; conditions: day 15 post-activation
Method: On Day 0, buffycoats were obtained by a clinical facility, and PBMCs were isolated by density centrifugation using Ficoll™. CD3 enrichment was performed using magnetic beads, PanT cell isolation from Myltenyi Biotec. The T cells were activated with aCD^3/aCD28 Dynabeads (3:1 ratio).
On Day 2, a first round of transduction was performed with lentivirus. On Day 3, a second round of transduction was performed with lentivirus.
On Day 6, the beads were removed. On Day 6-8, Flow cytometry sorting was performed with a FACSAria II (BD).
The cells were cultured in RPMI, 10% FBS, penicillin-streptomycin, and 100IU of IL-2. Cells were plated at a density of 0.3×10^6 cells/ml until day 15, then 0.5×10^6 cells/ml and after day 25 at 1×10^6 cells/ml.
A short hairpin RNA (shRNA) directed against USP16 (shUSP16) was purchased from Dharmacon. […] Between 0.15 and 0.5×10^6 cells were plated post-sorting with a purity higher than 90% and counted every 2-4 days by Trypan Blue exclusion using Vi-CELL XR cell counter (Beckman Coulter). Proliferation was measured as expansion ratio compared to the initial cell seeding. […]
A new set of shRNAs were cloned into the pSIH backbone, where the shRNA expression is driven by the H1 promoter. […] Proliferation was measured as fold increased compared to shControl at day 15 post-activation. […]

Axin-2 = experiment: qPCR of WNT pathway gene Axin-2; conditions: day 15, n=4; for Axin-2 expression, fold change vs Control: CD19.CAR
Source text: Primary T cells were activated as described (Example 3), transduced with a lentivirus encoding for either a CD19.CAR or a GD2.CAR co-expressing shUSP16 #1, shUSP16 #2 or a scrambled shRNA (Control). Fifteen days post-activation, T cells were collected and qPCR performed. TaqMan probes detecting CDKN1A, CDKN2A (FIGS. 26A and 26B) (fold change GD2.CAR (n=4): CDKN1A Control vs shUSP #1: 0.4360, p<0.0001, and Control vs shUSP16 #2: 3.036, p=0.004 respectively. Fold change CD19.CAR (n=4): CDKN2a, CDKN1A Control vs shUSP #1: 0.6906, p=0.0026; 0.7228, p=0.0297 and Control vs shUSP16 #2: 0.8385, p=0.2325; 0.7017, p=0.0021), TCF7, LEF1, and Axin-2 (FIGS. 27A and B) were analyzed in GD2.CAR and CD19.CAR-expressing cells, respectively. ACTB was used as internal control. (GD2.CAR (n=4) TCF7, LEF1 and Axin-2: Control vs shUSP #1: 1.914 p=0.0512; 1.795 p=0.0323; 3.269 p=0.15 and Control vs shUSP16 #2: 1.284 p=0.0494; 1.718 p=0.0586; 2.035p=0.235, respectively. Fold change CD19.CAR (n=4): TCF7, LEF1 and Axin-2: Control vs shUSP #1: 1.528, p=0.0277; 1.82, p=0.0449; 1.998, p=0.031 and Control vs shUSP16 #2: 1.18, p=0.2002; 1.579, p=0.0632; 1.261, p=0.2382). USP16 downregulation in CAR-T cells results in a decreased expression of senescence markers and an increase in the expression of genes associated with the activation/increased signaling of the WNT pathway, indicating its importance in delaying cellular senescence and increasing self-renewal.

CD69 = experiment: Exhaustion marker CD69 by flow cytometry; conditions: for CD69%: day 16, n=3; for reduction of exhaustion marker CD69 expression (shCtrl vs shRNA): primary T cells, day 20
Method: Primary T cells were activated as described (Example 3), transduced with a lentivirus encoding either a shUSP16 #1, shUSP16 #2 or a non-targeting shRNA (shCtrl) and cells were selected with puromycin at day 6. At day 20, T cells were stained for CD69-Allophycocyanin (Biolegend) and T cells analyzed by MACSQuant (Miltenyi Biotec) (FIG. 19). Three primary T cell cultures were analyzed.
Primary T cells were activated as described (Example 3), transduced with a lentivirus encoding for either a CD19.CAR or a GD2.CAR co-expressing shUSP16 #1, shUSP16 #2 or a scrambled shRNA (Control). Cells were cultured in IL-2 and sorted between days 6-13 for EGFRt. At day 16, T cells were stained for exhaustion markers, including CD69.

Row | Substance | proliferation, fold increased compared to shControl (primary T cells) | Axin-2 expression, fold change vs Control (Axin-2) | Axin-2 expression vs Control (Axin-2; GD2.CAR) | CD69% (CD69; CD19.CAR) [%] | CD69% (CD69; GD2.CAR) [%] | reduction of exhaustion marker CD69 expression (shCtrl vs shRNA) (CD69) [%]
1 | shUSP16 #1: shRNA targeting USP16, 5′-GACTGTAAGACTGACAATAAA-3′ (SEQ ID NO: 8), pSIH backbone or co-expressed in CAR plasmid | about 1.31 folds | 1.998 | 3.269 | 13.70 | 23.05 | 41
2 | shUSP16 #2: shRNA targeting USP16, 5′-TATATCAGTTCACCCGTAAT-3′ (SEQ ID NO: 9), pSIH backbone or co-expressed in CAR plasmid | ~2.33 folds | 1.261 | – | 27.17 | 27.8 | 40
